In EP1078634A1, “Medicament for inhibiting NF-kB” (Max Zeller Söhne AG, priority 1999, dated 2001):

Key:
NF-kB = NF-kB binding to DNA, electrophoretic mobility shift assay (EMSA) with Jurkat T cells; assay type: cell-based; conditions: TNF-a stimulation
Description: Die in Beispiel 2 hergestellten Substanzen wurden in zellfreien und zellulären Testsystemen nach bekannten Methoden auf NF-kB hemmende Wirkung geprüft. […] Bestimmt wurde die in-vivo und die in-vitro NF-kB Bindung an DNA durch Messung der elektrophoretischen Mobilitätsverschiebung.
Die in vivo Bindung wurde mit Jurkat T-Zellen durchgeführt. Die Zellen wurden während einer Stunde mit verschiedenen Konzentrationen der verschiedenen Extrakte inkubiert und anschliessend mit TNF-a während einer Stunde stimuliert. Total-Protein-Extrakte der Zellen wurden gewonnen und in einem Assay auf elektrophoretische Mobilitätsverschiebung (electrophoretic mobility shift asasy, EMSA) auf NF-kB-bindende Aktivität geprüft.
Die in vitro Bindung wurde ebenfalls mit Jurkat T-Zellen geprüft. Zellextrakte von stimulierten wie unstimulierten Zellen wurden gewonnen. Gleiche Proteinmengen (10-20 µg) wurden 2 Stunden mit Konzentrationsreihen der verschiedenen Isatis-Extrakte inkubiert und schliesslich auf elektrophoretische Mobilitätsverschiebung (EMSA) analysiert.

COX-2 = biological target: T1, COX-2 (Homo sapiens, UniProt P35354); experiment: COX-2 inhibition in LPS-stimulated Mono Mac 6 cells (Keto PGF 1α ELISA, method of Berg et al.); assay type: cell-based; conditions: COX-2 versus COX-1, in words
T1 construct: Dabei wurden Mono Mac 6-Zellen mit unterschiedlichen Konzentrationen der Testsubstanzen während 30 min inkubiert; endogenous in cells; host or cells: Mono Mac 6 cells, LPS-stimulated
T1 sequence (P35354 18-604): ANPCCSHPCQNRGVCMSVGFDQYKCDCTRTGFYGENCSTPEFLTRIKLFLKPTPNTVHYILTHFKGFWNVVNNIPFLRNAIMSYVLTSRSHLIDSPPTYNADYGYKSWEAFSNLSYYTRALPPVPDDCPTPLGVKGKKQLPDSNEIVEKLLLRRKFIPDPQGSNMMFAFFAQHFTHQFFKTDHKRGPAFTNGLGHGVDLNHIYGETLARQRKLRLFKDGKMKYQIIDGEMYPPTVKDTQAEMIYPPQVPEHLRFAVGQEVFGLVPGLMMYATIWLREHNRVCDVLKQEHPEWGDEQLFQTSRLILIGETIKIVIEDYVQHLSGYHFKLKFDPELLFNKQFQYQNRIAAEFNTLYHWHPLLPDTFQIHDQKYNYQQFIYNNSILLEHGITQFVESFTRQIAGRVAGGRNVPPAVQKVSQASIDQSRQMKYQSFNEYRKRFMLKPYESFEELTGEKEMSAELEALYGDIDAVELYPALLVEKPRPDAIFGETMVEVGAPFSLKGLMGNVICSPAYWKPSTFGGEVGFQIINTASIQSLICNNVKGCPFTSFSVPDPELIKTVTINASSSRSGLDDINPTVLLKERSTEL
Method: Die Bestimmung der COX-2 inhibitorischen Wirkung der gemäss Beispiel 2 synthetisierten Verbindungen wurde mit Mono Max 6-Zellen nach der Methode von Berg et al., J. Pharmaco. Toxicol.
Dabei wurden Mono Mac 6-Zellen mit unterschiedlichen Konzentrationen der Testsubstanzen während 30 min inkubiert, anschliessend Lipopolysaccharid (LPS, 100 ng/ml) zupipettiert und während weiteren 6 Stunden inkubiert. Anschliessend wurde Arachidonsäure zugegeben (Endkonz. 30 µM), während 15 Min. inkubiert und das gebildete Keto PGF 1α mittels ELISA bestimmt.
In einer Variante wurden Testsubstanz und LPS zeitgleich eingesetzt. Die Messung der COX1 Hemmung erfolgte in HEL-Zellen nach der Methode von Berg et al., J. Pharmacol. Toxicol. […] Dabei wurden HEL Zellen mit unterschiedlichen Konzentrationen der Testsubstanzen während 30 Min. inkubiert, anschliessend Arachidonsäure zugesetzt (Endkonz. 30 uM), während 15 Min. inkubiert und das gebildete Tromboxan B2 mittels ELISA gemessen.

| SMILES | NF-kB: Grenzkonzentration, bei der eben noch ein Hemmeffekt im EMSA feststellbar ist (NF-kB) | präferentielle Hemmung der induzierbaren COX-2 (COX-2) |
| --- | --- | --- |
| O=C1c2ccccc2-n2c1nc1ccc(Cl)cc1c2=O [Verbindung 5] | 50 µM/Liter | – |
| O=C1c2cc(Cl)ccc2-n2c1nc1ccccc1c2=O [Verbindung 10] | 5 µM/Liter | – |
| Nc1ccc2nc3n(c(=O)c2c1)-c1ccc(F)cc1C3=O [Verbindung 20] | 5 µM/Liter | – |
| Cc1cc(C)c2nc3n(c(=O)c2c1)-c1ccc(F)cc1C3=O [Verbindung 24] | >100 µM/Liter | – |
| CN1CCN(c2ccc3c(=O)n4c(nc3c2)C(=O)c2cc(F)ccc2-4)CC1 [Verbindung 32] | 10 µM/Liter | – |
| CCOC(=O)c1ccc2c(c1)C(=O)c1nc3ccccc3c(=O)n1-2 [Verbindung 37] | >100 µM/Liter | – |
| CC1CN(c2cc3c(cc2F)C(=O)c2nc4ccccc4c(=O)n2-3)CCN1C(=O)OC(C)(C)C (stereo not drawn) [Verbindung 42] | >100 µM/Liter | – |
| CCCCCCCCS(=O)(=O)c1ccc2c(c1)C(=O)c1nc3c(OC)cccc3c(=O)n1-2 [Verbindung 69] | >100 µM/Liter | – |
| O=C1c2cc(Cl)ccc2-n2c1nc1cc(N3CCOCC3)ccc1c2=O [Verbindung 86] | 0,5 µM/Liter | deutliche präferentielle Hemmung der induzierbaren COX-2 |
| CN(CC(=O)O)c1ccc2c(=O)n3c(nc2c1)C(=O)c1cc(Cl)ccc1-3 [Verbindung 99] | 1 µM/Liter | – |
| CN(CCO)c1ccc2c(=O)n3c(nc2c1)C(=O)c1cc(OC(F)(F)F)ccc1-3 [Verbindung 110] | 5 µM/Liter | – |
